This note sets out measurements from US10562839B2, “Medium chain fatty acid esters of β-hydroxybutyrate and butanediol and compositions and methods for using same” (The J. David Gladstone Institutes, priority 2016, dated 2020).

Data set [1] in a line: Pilot feeding study, food supplemented with esters of β-hydroxybutyrate and butanediol. The settings on record: 10% w/w in chow. It is filed as in vivo, C57BL/6 male mice. The text has this:
Different esters of β-hydroxybutyrate and butanediol were synthesized as described above and purified for testing in mice. The esters of β-hydroxybutyrate and butanediol that were supplemented into the diet of the mice in this study were as follows: 1) C8 diesters of butanediol (C8x2-BD); 2) C8 monoesters of β-hydroxybutyrate (C8-BHB); 3) C6 diesters of β-hydroxybutyrate (C6x2-BHB); 4) C6 monoesters of β-hydroxybutyrate (C6-BHB); and 5) C6 diesters of butanediol (C6x2-BD). Food compositions supplemented with 1,3-butanediol were also tested. Compounds were mixed at 10% w/w in ground normal chow (20% calories from protein) to match standard vivarium feed. The food was provided in a glass jar inside the animal cage. n=2 mice/condition, 18 mice total. All mice were 12 month-old C57BL/6 males. Mice were placed in individual cages to record food intake more precisely. Food was switched back to normal chow at 72 hrs (ground and in a glass jar).

Data set [2] in a line: Plasma BHB levels after intraperitoneal injection of C6 and C8 esters. It is filed as in vivo, wild-type C57BL/6 male mice. The note with it: for blood BHB levels: intraperitoneal injection, 50 uL and 100 uL (approx. 1-3 g/kg), blood up to 6 hours after injection. The procedure: C6 and C8 esters of butanediol and C6 and C8 esters of β-hydroxybutyrate were synthesized as described above and purified for testing in wild-type C57BL/6Ncrl male mice obtained from Charles River Laboratories. Mice were 8 months old at the time of the experiment. The biological function of C6 and C8 esters of butanediol and β-hydroxybutyrate was tested by intraperitoneal injection at two doses each, 50 uL and 100 uL. Injection was performed approximately 9 am (mice are maintained on 7a-7p light-dark cycle) and mice had access to food and water at all times. The molar quantity injected varied from 0.13-0.41 millimoles depending on the compound and dose. The subject mice weighed approximately 30 grams, so the quantity of compound injected ranged approximately from 1 g/kg to 3 g/kg. For comparison, these amounts could theoretically supply about 1/20 of a mouse's daily caloric needs—equivalent in humans to around 100 calories. Blood was drawn by distal tail nick just prior to injection (baseline) and at 30 min, 1 hour, 2 hours, 4 hours, and 6 hours after injection. Approximately 40 uL of blood was collected into lithium-heparin microvettes (Sarstedt CB-300LH) and subsequently centrifuged 15 min at 1500×G at 4° C. to separate plasma. Plasma BHB levels were determined by a colorimetric enzymatic assay (Stanbio Laboratory 2440-058).

Data set [3] is described as follows: Pilot feeding study, food supplemented with C6 monoester of β-hydroxybutyrate. It is filed as in vivo, C57BL/6 male mice. The method, then:
C6 monoester of β-hydroxybutyrate was synthesized as described above and purified for testing in mice. The C6 monoester of β-hydroxybutyrate was mixed into ground control food (10% calories from protein), the same control diet used in the above examples involving ketogenic and control diet. The food was placed in a glass jar inside the animal cage at the start of the nighttime feeding cycle, 19:00 h. Different concentrations of the C6 monoester of β-hydroxybutyrate (w/w) were mixed into the control diet to determine which concentration was sufficient to raise BHB levels in the mice. n=4 mice/condition (2 mice per cage). All mice were 12 month-old C57BL/6 males.

Data set [4] is described as follows: Plasma BHB after intraperitoneal injection in APPJ20 mice. The format is in vivo. The settings on record: approximately 70-80 minutes after i.p. injection; from a median of approximately 200 μM. The method, then: (§1) EEGs were recorded from APPJ20 mice before and after intraperitoneal injection of C6-BHB, or an equivalent volume of saline. Following completion of the first 50 min recording, the injection was performed. Mice were then allowed to recover for 20 minutes in their home cage, followed by the second 50 min EEG recording. Blood was drawn immediately following completion of the second EEG session in order to measure plasma BHB levels (as described in Example 4). The lower of the two previously tested doses from Example 4 was injected, 50 μL per 30 g body weight, which is approximately 1.5 g/kg and approximately 0.2 millimoles.
(§2) During the EEG recordings, mice were freely moving in a transparent cylinder approximately the size of a home cage. Methodology for recording and analysis of EEGs and video tracking for movement was described in Example 5. Methodology for blood draws and plasma BHB measurement was described in Example 4.

The next data set concerns APPJ20 mice. In words: EEG epileptiform spikes before and after intraperitoneal injection of C6-BHB. It is filed as in vivo. The procedure:
C6 and C8 esters of butanediol and C6 and C8 esters of β-hydroxybutyrate were synthesized as described above. The C6 ester of β-hydroxybutyrate was tested for efficacy in suppressing spikes in APPJ20 mice by intraperitoneal injection into 1-2 year-old APPJ20 mice including both male and female mice. The APPJ20 mice were described in Example 5.
as §1, §2
The study used a cross-over design where all mice were injected with both C6-BHB and normal saline on different days, with at least 48 hours between injections. Data analysis was limited to mice that completed all injections and EEG recordings.

Data set [5] in a line: Feeding study, food supplemented with C6 diesters of β-hydroxybutyrate. It is filed as in vivo, C57BL/6 male mice. The note with it: 10% w/w in diet, eighth night. The text has this:
Based on the results of the above Pilot studies, the C6 diesters of β-hydroxybutyrate were selected for a longer study with a greater number of mice to see if it would remain ketogenic even after food intake normalized. C6 diesters of β-hydroxybutyrate were synthesized as described above and purified for testing in mice. The C6 diesters of β-hydroxybutyrate were mixed at 10% w/w into ground standard chow diet (20% calories from protein), which was re-formed into pellets. Re-pelleted food was used to minimize any variable effects from a change in diet texture to ground.
The pelleted food was consumed by the mice after being placed in a glass jar in the animal cage. Four mice per diet were tested, with the mice individually caged. All mice were 12 month-old C57BL/6 males. Daily weight and caloric intake was monitored and blood was drawn for glucose and β-hydroxybutyrate levels on the eighth night. […] By the 7th night, the weights of the mice stabilized and 24 hour caloric intake was similar between the control diet and the mice that consumed food supplemented with C6 esters of β-hydroxybutyrate.

For `CCCCCC(=O)OCC` [C6, reference compound], the hypoglycaemias entry in data set [1] is reported as “can be explained by fasting”.

For the compound `CCCCCC(=O)O[C@H](C)CC(=O)OCC` [C6-BHB], the side effect observed result in data set [2] (higher dose (100 uL), intraperitoneal) is reported as “mild sedation”. Also, in data set [2], the “blood BHB levels” value is on record as “increased BHB levels to that seen on a ketogenic diet (0.5-2 mM), or after an overnight fast (1-3 mM)”. Besides, in data set [3] (2.5% or 5% by weight in food), the “BHB level in the blood” value is listed as “slight increase in BHB level in the blood” and the “BHB level in the blood against the targeted threshold” value is ≤ 500. In addition, in data set [3] (10% or 20% by weight in food, probably explained by fasting), the “β-hydroxybutyrate concentration in blood” value is given as “greater increase in β-hydroxybutyrate concentration”. In addition, the hypoglycaemias result in data set [1] was “likely a result of the compound”. Moreover, the “plasma BHB levels, median” value in data set [4] is reported as “approximately 600 μM”. Moreover, the epileptiform spikes in the data set with APPJ20 mice (after i.p. 50 μL per 30 g body weight, saline 1.25 spikes/min) worked out at 0.82 spikes/min. Besides, the “reduction of epileptiform spikes compared to saline injection” value in the data set with APPJ20 mice (i.p. 50 μL per 30 g body weight (approx. 1.5 g/kg), 50 min EEG) is on record as “approximately 35%”. Moreover, the “epileptiform spikes after injection” value with APPJ20 mice (i.p. injection, 50 min EEG) was “reduces spikes compared to both pre-injection baselines and injection of saline”. Moreover, the “spike reduction compared to after saline, at the individual mouse level” value with APPJ20 mice (i.p. injection, P<0.05) was “significant reductions for most mice”.

As for `CCCCCCOC(=O)C[C@@H](C)OC(=O)CCCCC` [C6x2-BHB], the “plasma β-hydroxybutyrate against targeted threshold” value in data set [5] is ≥ 500 µM. In addition, in data set [5] (normal caloric intake), the “β-hydroxybutyrate plasma concentrations versus control diet” value was “greater β-hydroxybutyrate plasma concentrations”.

`CCCCCCCC(=O)O[C@H](C)CC(=O)OCC` [C8-BHB]: the “blood BHB levels” value in data set [2] is given as “increased BHB levels to that seen on a ketogenic diet (0.5-2 mM), or after an overnight fast (1-3 mM)”. Also, in data set [1], the hypoglycaemias entry is listed as “can be explained by fasting”. In addition, in data set [1] (targeted 500 μM threshold), the “blood concentration of β-hydroxybutyrate” value was “high BHB value”.
